Measured values from the NIST ThermoML archive (doi:10.1021/je201107a).

Tests used:
[1] = mn = molality of the nth substance listed, in mol/kg; conditions: 298.15 K, Ring tensiometer
[2] = cn = amount concentration of the nth substance listed, in mol/dm3; conditions: 298.15 K, Ring tensiometer

CCCCCCCCCCCC[N+](C)(C)[O-] [Dodecyldimethylamine oxide] + O
[1]
Conditions | surface tension liquid-gas [mN/m]
m1 = 0.00025 | 43.18
m1 = 0.0005 | 39.98
m1 = 0.00074 | 39.2
m1 = 0.00099 | 36.87
m1 = 0.00123 | 35.11
m1 = 0.00148 | 33.73
m1 = 0.00172 | 33.19
m1 = 0.00196 | 33.32
m1 = 0.00244 | 34.06
m1 = 0.00291 | 34.05
m1 = 0.00338 | 34.22
m1 = 0.00385 | 34.14
m1 = 0.00431 | 34.17

CCCCCCCCCC[N+](C)(C)C.[Br-] [N,N,N-trimethyl-1-decanaminium bromide] + O
[2]
Conditions | surface tension liquid-gas [mN/m]
c1 = 0.0118 | 54.43
c1 = 0.0211 | 48.37
c1 = 0.0286 | 45.75
c1 = 0.0348 | 42.87
c1 = 0.04 | 40.18
c1 = 0.0444 | 37.98
c1 = 0.0464 | 37.19
c1 = 0.0483 | 36.21
c1 = 0.05 | 36.15
c1 = 0.0516 | 36.47
c1 = 0.0531 | 35.98
c1 = 0.0545 | 35.88
c1 = 0.0559 | 36.19
c1 = 0.0571 | 36.31

CCCCCCCCCCCC[N+](C)(C)C.[Br-] [dodecyltrimethylammonium bromide] + O
[1]
Conditions | surface tension liquid-gas [mN/m]
m1 = 0.0005 | 55.13
m1 = 0.00099 | 55.56
m1 = 0.00148 | 53.67
m1 = 0.00196 | 53.93
m1 = 0.00244 | 53.53
m1 = 0.00291 | 52.63
m1 = 0.00338 | 52.13
m1 = 0.00476 | 49.16
m1 = 0.00654 | 45.2
m1 = 0.00826 | 42.32
m1 = 0.00991 | 39.41
m1 = 0.0115 | 36.77
m1 = 0.013 | 34.09
m1 = 0.0138 | 34.98
m1 = 0.0145 | 37.44
m1 = 0.0153 | 37.98
m1 = 0.016 | 38.33
m1 = 0.0167 | 38.47
m1 = 0.0177 | 38.69
m1 = 0.0184 | 38.46

CCCCCCCCCCCCCC[N+](C)(C)C.[Br-] [tetradecyltrimethylammonium bromide] + O
[1]
Conditions | surface tension liquid-gas [mN/m]
m1 = 0.0005 | 53.96
m1 = 0.00099 | 52.31
m1 = 0.00148 | 46.35
m1 = 0.00196 | 41.65
m1 = 0.00244 | 39
m1 = 0.00291 | 36.35
m1 = 0.00338 | 34.05
m1 = 0.00385 | 33.87
m1 = 0.00431 | 35.02
m1 = 0.00476 | 36.24
m1 = 0.00521 | 35.86
m1 = 0.00566 | 36.33
m1 = 0.0061 | 36.74
m1 = 0.00654 | 36.6
m1 = 0.00698 | 36.81
